Data published in patent publication EP4122917A1, “C2-THIOETHER […] AND TETRAMERS AND USE THEREOF” (priority 2021, dated 2023).
Where two headings read alike, the source gives them in different places.

Tests used:
[1] = test system: Pseudotyped vesicular stomatitis virus (VSV) carrying a codon-optimized S protein of the Wuhan SARS-CoV-2 strain; format: cell-based; conditions: read-out: IC50 (µM) Pseudotype VSV (Vero)
[2] = test system: Pseudotyped vesicular stomatitis virus (VSV) carrying a codon-optimized S protein of the Wuhan SARS-CoV-2 strain; format: cell-based; conditions: read-out: IC50 (µM) Pseudotype VSV (A549ACE2-TM PRSS2)
in vitro [3] = conditions: monkey, vero cells
in vitro [4] = conditions: human, a549-ace2-tmprss2 cells
in vitro [5] = conditions: monkey, vero-e6 cells

SMILES	IC50 [1]	IC50 [2]	CC50 (in vitro [3])	CC50 (in vitro [4])	CC50 at 24 h (in vitro [5])
NCC(=O)NC(CCC(=O)N[C@@H](Cc1c(Sc2cccc([N+](=O)[O-])c2)[nH]c2ccccc12)C(=O)O)(CCC(=O)N[C@@H](Cc1c(Sc2cccc([N+](=O)[O-])c2)[nH]c2ccccc12)C(=O)O)CCC(=O)N[C@@H](Cc1c(Sc2cccc([N+](=O)[O-])c2)[nH]c2ccccc12)C(=O)O [Compound 7b]	13 µM	6.44 µM	> 100 µM	> 100 µM	
NCC(=O)NC(CCC(=O)N[C@@H](Cc1c(Sc2ccc([N+](=O)[O-])cc2)[nH]c2ccccc12)C(=O)O)(CCC(=O)N[C@@H](Cc1c(Sc2ccc([N+](=O)[O-])cc2)[nH]c2ccccc12)C(=O)O)CCC(=O)N[C@@H](Cc1c(Sc2ccc([N+](=O)[O-])cc2)[nH]c2ccccc12)C(=O)O [Compound 7a]	0.23 µM	2.4 µM	> 100 µM	> 100 µM	> 100 µM
N#Cc1ccc(Sc2[nH]c3ccccc3c2C[C@H](NC(=O)CCC(CCC(=O)N[C@@H](Cc2c(Sc3ccc(C#N)cc3)[nH]c3ccccc23)C(=O)O)(CCC(=O)N[C@@H](Cc2c(Sc3ccc(C#N)cc3)[nH]c3ccccc23)C(=O)O)NC(=O)CN)C(=O)O)cc1 [Compound 7e]	13.9 µM	8.8 µM	> 100 µM	> 100 µM	
CC(=O)c1ccc(Sc2[nH]c3ccccc3c2C[C@H](NC(=O)CCC(CCC(=O)N[C@@H](Cc2c(Sc3ccc(C(C)=O)cc3)[nH]c3ccccc23)C(=O)O)(CCC(=O)N[C@@H](Cc2c(Sc3ccc(C(C)=O)cc3)[nH]c3ccccc23)C(=O)O)NC(=O)CN)C(=O)O)cc1 [Compound 7c]	1.4 µM	1.94 µM	> 100 µM	> 100 µM	> 100 µM
NCC(=O)NC(CCC(=O)N[C@@H](Cc1c(Sc2ccc(C(F)(F)F)cc2)[nH]c2ccccc12)C(=O)O)(CCC(=O)N[C@@H](Cc1c(Sc2ccc(C(F)(F)F)cc2)[nH]c2ccccc12)C(=O)O)CCC(=O)N[C@@H](Cc1c(Sc2ccc(C(F)(F)F)cc2)[nH]c2ccccc12)C(=O)O [Compound 7d]	15.1 µM	9.35 µM	> 100 µM	> 100 µM	
NCC(=O)NC(CCC(=O)N[C@@H](Cc1c(Sc2ccc(F)cc2)[nH]c2ccccc12)C(=O)O)(CCC(=O)N[C@@H](Cc1c(Sc2ccc(F)cc2)[nH]c2ccccc12)C(=O)O)CCC(=O)N[C@@H](Cc1c(Sc2ccc(F)cc2)[nH]c2ccccc12)C(=O)O [Compound 7f]	28.4 µM	31 µM	> 100 µM	> 100 µM	
